Measured values published in patent publication US20100273876A1, “ANTIBACTERIAL FORMULATION COMPRISING A DIALKYL SULPHOSUCCINATE AND A CARBANILIDE ANTIBACTERIAL AGENT” (priority 2007, published 2010).

Columns and labels:
[1] = system: C. mucifaciens ATCC 700355; assay: (S)DDA disc diffusion; format: cell-based, Corynebacterium mucifaciens; settings: for DDA: 200 μg per disc
Description: Several Corynebacterium test species were also used in this study, namely C. mucifaciens ATCC 700355, C. striatum NCTC 764, C. xerosis NCTC 11861 and C. jeikeium NCTC 11915. These Gram-positive pathogens are closely related to organisms (aerobic diphtheroids of the genus Corynebacterium) that cause body odour. C. mucifaciens and C. striatum were cultured and maintained on Mueller-Hinton Medium (agar and broth) and were incubated aerobically at 37° C. for 24 hours. C. xerosis and C. jeikeium were cultured and maintained on Mueller-Hinton Medium containing 5% (v/v) lysed horse blood (agar and broth) and were incubated aerobically at 37° C. for 72 hours. A sterile paper disc was impregnated with a sample of the test compound in a suitable solvent and 30 minutes allowed for the solvents to evaporate (where possible). The disc was then placed on an agar plate onto which the test micro-organism had been inoculated. The plate was then incubated under the conditions described above, following which it was examined visually for signs of microbial growth. If the test compound had antimicrobial activity, a circular zone of no growth would be obtained around the disc. The diameter of this zone of “inhibition” was measured using a ProtoCOL™ automated zone sizer (Synbiosis, Cambridge, UK). In general, a greater diameter and/or area of the zone of inhibition indicates a greater antimicrobial activity in the relevant test compound, although other factors such as test compound mobility through the agar gel may also influence the result. Two test a compounds A and B were placed on a single paper disc and the above described DDA procedure repeated. An increase in diameter of the zone of inhibition, compared to the greater of the zone diameters for the two compounds individually, was taken to indicate potential antimicrobial synergy. In practical terms, an increase of greater than 5 mm could be treated as significant. The activities of DOSS and TCC were determined, using (S)DDAs, against the test organisms C. mucifaciens ATCC 700355, C. striatum NCTC 764, C. xerosis NCTC 11861 and C. jeikeium NCTC 11915. 200 μg of the DOSS and/or the TCC were loaded onto each disc. All the experiments were conducted in triplicate.

P. granulosum PRP-005 = assay: (S)DDA disc diffusion; format: cell-based, Propionibacterium granulosum
Description: (§1) The propionibacteria were cultured and maintained on Wilkins-Chalgren Anaerobe Medium (agar and broth) at pH 6.0; all cultures were incubated anaerobically at 37° C. for 72 hours.
(§2) A sterile paper disc was impregnated with a sample of the test compound in a suitable solvent and 30 minutes allowed for the solvents to evaporate (where possible). The disc was then placed on an agar plate onto which the test micro-organism had been inoculated. The plate was then incubated under the conditions described above, following which it was examined visually for signs of microbial growth. If the test compound had antimicrobial activity, a circular zone of no growth would be obtained around the disc. The diameter of this zone of “inhibition” was measured using a ProtoCOL™ automated zone sizer (Synbiosis, Cambridge, UK). In general, a greater diameter and/or area of the zone of inhibition indicates a greater antimicrobial activity in the relevant test compound, although other factors such as test compound mobility through the agar gel may also influence the result.
(§3) Two test a compounds A and B were placed on a single paper disc and the above described DDA procedure repeated. An increase in diameter of the zone of inhibition, compared to the greater of the zone diameters for the two compounds individually, was taken to indicate potential antimicrobial synergy. In practical terms, an increase of greater than 5 mm could be treated as significant.
(§4) Both the DDA and the SDDA test may be carried out using an agar gel supplemented with lipid and/or salt to simulate some of the major components present in human skin and to assess whether these substances might reduce the antimicrobial activity observed for the test compound. Performance under these conditions can provide a more reliable indication of activity on topical application. The supplements used in Examples 1, 11, 12 and 13 below were lipid (either Tween™ 80 at 1% v/v (Example 1) or triolein at 1% v/v (Examples 11, 12 and 13) and sodium chloride (100 mM).

P. granulosum PRP-021 = assay: (S)DDA disc diffusion; format: cell-based, Propionibacterium granulosum
Description: as §1, §2, §3, §4

P. granulosum PRP-044 = assay: (S)DDA disc diffusion; format: cell-based, Propionibacterium granulosum
Description: as §1, §2, §3, §4

P. granulosum PRP-055 = assay: (S)DDA disc diffusion; format: cell-based, Propionibacterium granulosum
Description: as §1, §2, §3, §4

P. granulosum PRP-019 = assay: (S)DDA disc diffusion; format: cell-based, Propionibacterium granulosum
Description: as §1, §2, §3, §4

P. granulosum PRP-043 = assay: (S)DDA disc diffusion; format: cell-based, Propionibacterium granulosum
Description: as §1, §2, §3, §4

P. granulosum PRP-006 = assay: (S)DDA disc diffusion; format: cell-based, Propionibacterium granulosum
Description: as §1, §2, §3, §4

P. granulosum NCTC 11865 = assay: (S)DDA disc diffusion; format: cell-based, Propionibacterium granulosum
Description: as §1, §2, §3, §4

P. acnes NCTC 737 = assay: Disc diffusion / synergy disc diffusion assay ((S)DDA); format: cell-based, Propionibacterium acnes; settings: for (S)DDA: diluted 1:2 with placebo, 10 μl per disc; for SDDA with DOSS: 200 μg TCC + 50 μg DOSS on one disc
Description: as §1, §2, §3, §4

[2] = P. granulosum PRP-005 (MLSK), 200 μg TCC or 50 μg DOSS per disc
[3] = P. granulosum PRP-021 (MLS), 200 μg TCC or 50 μg DOSS per disc
[4] = P. granulosum PRP-044 (MLS), 200 μg TCC or 50 μg DOSS per disc
[5] = P. granulosum PRP-055 (resistance None), 200 μg TCC or 50 μg DOSS per disc
[6] = P. granulosum PRP-019 (MLSK), 200 μg TCC or 50 μg DOSS per disc
[7] = P. granulosum PRP-043 (MLS), 200 μg TCC or 50 μg DOSS per disc
[8] = P. granulosum PRP-006 (MLS), 200 μg TCC or 50 μg DOSS per disc
[9] = P. granulosum NCTC 11865 (resistance None), 200 μg TCC or 50 μg DOSS per disc
[10] = supplemented with salt (sodium chloride 100 mM) & lipid (Tween 80 1% v/v), 50 μg DOSS or 200 μg TCC per disc
[11] = unsupplemented, 50 μg DOSS or 200 μg TCC per disc
[12] = unsupplemented, with respect to the TCC

For dioctyl sodium sulphosuccinate [DOSS], the SDDA area increase [1] was 165.45%, the SDDA increase [1] was 8.13 mm and the “SDDA with TCC” value ([1]; 200 μg DOSS + 200 μg TCC on one disc) was 21.05 mm. The DDA [1] was 12.92 mm, the DDA (P. granulosum PRP-005; [2]) was 26.31 mm and the DDA (P. granulosum PRP-005; P. granulosum PRP-005, 200 μg per disc) was 42.96 mm. The “DDA + salt” value (P. granulosum PRP-005; P. granulosum PRP-005, 200 μg per disc, sodium chloride 100 mM) was 46.38 mm, the “DDA + lipid” value (P. granulosum PRP-005; P. granulosum PRP-005, 200 μg per disc, triolein 1% v/v) was 40.47 mm and the DDA (P. granulosum PRP-021; [3]) was 0.00 mm. The DDA (P. granulosum PRP-021; P. granulosum PRP-021, 200 μg per disc) was 39.53 mm, the “DDA + salt” value (P. granulosum PRP-021; P. granulosum PRP-021, 200 μg per disc, sodium chloride 100 mM) was 38.60 mm and the “DDA + lipid” value (P. granulosum PRP-021; P. granulosum PRP-021, 200 μg per disc, triolein 1% v/v) was 42.02 mm. The DDA (P. granulosum PRP-044; [4]) was 0.00 mm, the DDA (P. granulosum PRP-044; P. granulosum PRP-044, 200 μg per disc) was 38.29 mm and the “DDA + salt” value (P. granulosum PRP-044; P. granulosum PRP-044, 200 μg per disc, sodium chloride 100 mM) was 37.67 mm. The “DDA + lipid” value (P. granulosum PRP-044; P. granulosum PRP-044, 200 μg per disc, triolein 1% v/v) was 35.49 mm, the DDA (P. granulosum PRP-055; [5]) was 10.07 mm and the DDA (P. granulosum PRP-055; P. granulosum PRP-055, 200 μg per disc) was 40.16 mm. For the same compound, the “DDA + salt” value (P. granulosum PRP-055; P. granulosum PRP-055, 200 μg per disc, sodium chloride 100 mM) was 38.29 mm, the “DDA + lipid” value (P. granulosum PRP-055; P. granulosum PRP-055, 200 μg per disc, triolein 1% v/v) was 36.42 mm and the DDA (P. granulosum PRP-019; [6]) was 19.94 mm. The DDA (P. granulosum PRP-019; P. granulosum PRP-019, 200 μg per disc) was 41.71 mm, the “DDA + salt” value (P. granulosum PRP-019; P. granulosum PRP-019, 200 μg per disc, sodium chloride 100 mM) was 42.02 mm and the “DDA + lipid” value (P. granulosum PRP-019; P. granulosum PRP-019, 200 μg per disc, triolein 1% v/v) was 42.65 mm. For the same compound, the DDA (P. granulosum PRP-043; [7]) was 8.94 mm, the DDA (P. granulosum PRP-043; P. granulosum PRP-043, 200 μg per disc) was 40.16 mm and the “DDA + salt” value (P. granulosum PRP-043; P. granulosum PRP-043, 200 μg per disc, sodium chloride 100 mM) was 35.80 mm. The “DDA + lipid” value (P. granulosum PRP-043; P. granulosum PRP-043, 200 μg per disc, triolein 1% v/v) was 35.18 mm, the DDA (P. granulosum PRP-006; [8]) was 19.01 mm and the DDA (P. granulosum PRP-006; P. granulosum PRP-006, 200 μg per disc) was 40.47 mm. The “DDA + salt” value (P. granulosum PRP-006; P. granulosum PRP-006, 200 μg per disc, sodium chloride 100 mM) was 41.09 mm, the “DDA + lipid” value (P. granulosum PRP-006; P. granulosum PRP-006, 200 μg per disc, triolein 1% v/v) was 40.16 mm and the DDA (P. granulosum NCTC 11865; [9]) was 14.70 mm. The DDA (P. granulosum NCTC 11865; P. granulosum NCTC 11865, 200 μg per disc) was 39.84 mm, the “DDA + salt” value (P. granulosum NCTC 11865; P. granulosum NCTC 11865, 200 μg per disc, sodium chloride 100 mM) was 37.98 mm and the “DDA + lipid” value (P. granulosum NCTC 11865; P. granulosum NCTC 11865, 200 μg per disc, triolein 1% v/v) was 38.60 mm. For the same compound, the DDA (P. acnes NCTC 737; 200 μg per disc, pH 6.0, single replicates) was 47.63 mm, the “DDA + salt” value (P. acnes NCTC 737; 200 μg per disc, pH 6.0, sodium chloride 100 mM) was 45.14 mm and the “DDA + lipid” value (P. acnes NCTC 737; 200 μg per disc, pH 6.0, triolein 1% v/v) was 47.32 mm. For the same compound, the “(S)DDA” value (P. acnes NCTC 737; 2.5% w/w DOSS solution (Solutol HS 15/ethanol/water)) was 0.00 mm, the “(S)DDA” value (P. acnes NCTC 737; 5% w/w DOSS solution) was 31.88 mm and the “(S)DDA” value (P. acnes NCTC 737; 7.5% w/w DOSS solution) was 40.52 mm. The DDA (P. acnes NCTC 737; [10]) was 0.00 mm and the DDA (P. acnes NCTC 737; [11]) was 11.81 mm.

With `O=C(Nc1ccc(Cl)cc1)Nc1ccc(Cl)c(Cl)c1` [TCC, N-(4-chlorophenyl)-N′-(3,4-dichlorophenyl) urea] the DDA [1] was 9.59 mm, the DDA (P. granulosum PRP-005; [2]) was 12.13 mm and the DDA (P. granulosum PRP-021; [3]) was 0.00 mm. For the same compound, the DDA (P. granulosum PRP-044; [4]) was 0.00 mm, the DDA (P. granulosum PRP-055; [5]) was 17.16 mm and the DDA (P. granulosum PRP-019; [6]) was 0.00 mm. The DDA (P. granulosum PRP-043; [7]) was 8.84 mm, the DDA (P. granulosum PRP-006; [8]) was 10.17 mm and the DDA (P. granulosum NCTC 11865; [9]) was 17.78 mm. The DDA (P. acnes NCTC 737; 200 μg of each test compound per disc (Example 2)) was 15.69 mm, the “(S)DDA” value (P. acnes NCTC 737; 0.1% w/w TCC solution) was 0.00 mm and the “(S)DDA” value (P. acnes NCTC 737; 0.2% w/w TCC solution) was 0.00 mm. The “(S)DDA” value (P. acnes NCTC 737; 0.3% w/w TCC solution) was 30.10 mm, the SDDA area increase (P. acnes NCTC 737; supplemented with salt & lipid) was “∞” and the SDDA increase (P. acnes NCTC 737; supplemented with salt & lipid) was 10.57 mm. The “SDDA with DOSS” value (P. acnes NCTC 737; supplemented with salt & lipid) was 10.57 mm, the DDA (P. acnes NCTC 737; [10]) was 0.00 mm and the DDA (P. acnes NCTC 737; [11]) was 18.76 mm. The “SDDA with DOSS” value (P. acnes NCTC 737; unsupplemented) was 29.95 mm, the SDDA area increase (P. acnes NCTC 737; [12]) was 154.9% and the SDDA increase (P. acnes NCTC 737; [12]) was 11.19 mm.
